Results as given in patent US20240287052A1, “NOVEL OXAZOLE DERIVATIVE AND PHARMACEUTICAL COMPOSITION FOR PREVENTING OR TREATING ALLERGIC DISEASES COMPRISING THE SAME” (AZCURIS CO., LTD., priority 2021, published 2024).
Like-named read-outs stand apart in the source and are kept apart here.

Key:
[1] = system: IL-6 secretion in the human mast cell line HMC 1.1; experiment: IL-6 production inhibition assay (IL-33 stimulated HMC 1.1 cells, IL-6 ELISA); assay type: cell-based; settings: 24 hours; for inhibition at 1 µM: 1 μM compound, read-out: Inhibition of hIL-6 production (%) 1 μM; for inhibition at 10 µM: 10 μM compound, read-out: Inhibition of hIL-6 production (%) 10 μM
Procedure: Human mast cell line HMC 1.1 cells were cultured in medium (Iscove's Modified Dulbecco's Medium, IMDM, HyClone) supplemented with […] fetal bovine serum (FBS, HyClone) and 1% antibiotics and maintained at 37° C. with 5% CO2.
HMC 1.1 cells, which are non-adherent cells, were cultured in 0.5 mL of culture medium containing 200 nM of IL-33 wild type human recombinant protein after centrifugation of cells in culture flasks filled to […] capacity and incubated for 24 hours with […], 10 μM, 25 μM, 30 μM or 50 μM of Example compound.
Medium was harvested by centrifugation (2,000×g, 5 min) and stored at −80° C. until ELISA assay.
Experiments were performed according to the protocol using the Human IL-6 ELISA kit (abCam).
The average of the three values obtained in triplicate was calculated and the amount of IL-6 secretion was measured using a standard curve. The measured IL-6 secretion was converted to 100% based on the vehicle treatment sample value to obtain the vehicle %.

IL33 and ST2 binding = biological target: T1, IL33 and ST2 binding (Homo sapiens, UniProt O95760);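 note: plate ELISA with coated Flag-tagged human IL-33 and His-tagged human ST2, bound ST2 detected by anti-His HRP and TMB absorbance at 450 nm, 2 h compound incubation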
T1 sequence (O95760 112-270 limits assumed): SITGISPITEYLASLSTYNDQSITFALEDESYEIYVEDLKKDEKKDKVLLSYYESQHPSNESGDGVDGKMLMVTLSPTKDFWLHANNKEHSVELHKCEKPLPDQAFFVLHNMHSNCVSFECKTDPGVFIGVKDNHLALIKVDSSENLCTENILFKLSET

| inhibition (IL33 and ST2 binding; 30 µM) [%] | inhibition (IL33 and ST2 binding; 100 µM) [%] | SMILES | inhibition at 1 µM [1] [%] | inhibition at 10 µM [1] [%] |
| --- | --- | --- | --- | --- |
| – | – | CCCNC(=O)c1nc(-c2ccc(C(F)(F)F)cc2)oc1-c1ccc(OC)cc1 [Compound 301, 5-(4-Methoxyphenyl)-N-propyl-2-(4-(Trifluoromethyl)phenyl)oxazole-4-carboxamide] | 21 | 31 |
| – | – | CCNC(=O)c1nc(-c2ccc(C(F)(F)F)cc2)oc1-c1cc(OC)cc(OC)c1 [Compound 303, 5-(3,5-Dimethoxyphenyl)-N-ethyl-2-(4-(trifluoromethyl)phenyl)oxazole-4-carboxamide] | 26 | 26 |
| – | – | CCNC(=O)c1nc(-c2ccc(C(F)(F)F)cc2)oc1-c1ccccc1OC [Compound 296, N-Ethyl-5-(2-methoxyphenyl)-2-(4-(trifluoromethyl)phenyl)oxazole-4-carboxamide] | 0 | 32 |
| – | – | CCNC(=O)c1nc(-c2ccc(C(F)(F)F)cc2)oc1-c1ccc(OC)c(OC)c1 [Compound 302, 5-(3,4-dimethoxyphenyl)-N-ethyl-2-(4-(Trifluoromethyl)phenyl)oxazole-4-carboxamide] | -34 | -29 |
| – | – | CCCNC(=O)c1nc(-c2ccc(C(F)(F)F)cc2)oc1-c1ccncc1 [Compound 310, N-Propyl-5-(pyridin-4-yl)-2-(4-(trifluoromethyl)phenyl)oxazole-4-carboxamide] | 49 | 58 |
| – | – | CCNC(=O)c1nc(-c2ccc(C(F)(F)F)cc2)oc1-c1ccc(OC)cc1 [Compound 300, N-Ethyl-5-(4-methoxyphenyl)-2-(4-(trifluoromethyl)phenyl)oxazole-4-carboxamide] | 37 | 47 |
| – | – | CCNC(=O)c1nc(-c2ccc(C(F)(F)F)cc2)oc1-c1cc(OC)c(OC)c(OC)c1 [Compound 304, N-Ethyl-2-(4-(trifluoromethyl)phenyl)-5-(3,4,5-trimethoxyphenyl)oxazole-4-carboxamide] | -47 | -74 |
| – | – | CCCNC(=O)c1nc(-c2ccc(C(F)(F)F)cc2)oc1-c1ccccc1OC [Compound 297, 5-(2-Methoxyphenyl)-N-propyl-2-(4-(trifluoromethyl)phenyl)oxazole-4-carboxamide] | 3 | 34 |
| – | – | CCCNC(=O)c1nc(-c2ccc(C(F)(F)F)cc2)oc1-c1ccccc1 [Compound 295, 5-Phenyl-N-propyl-2-(4-(trifluoromethyl)phenyl)oxazole-4-carboxamide] | 53 | 57 |
| – | – | CCNC(=O)c1nc(-c2ccc(C(F)(F)F)cc2)oc1-c1ccc(O)c(O)c1 [Compound 321, 5-(3,4-Dihydroxyphenyl)-N-ethyl-2-(4-(trifluoromethyl)phenyl)oxazole-4-carboxamide] | 50 | 72 |
| – | – | CCCNC(=O)c1nc(-c2ccc(C(F)(F)F)cc2)oc1-c1cccc(OC)c1 [Compound 299, 5-(3-Methoxyphenyl)-N-propyl-2-(4-(Trifluoromethyl)phenyl)oxazole-4-carboxamide] | 40 | 57 |
| – | – | CCCNC(=O)c1nc(-c2ccc(C(F)(F)F)cc2)oc1-c1cccc(O)c1 [Compound 319, 5-(3-Hydroxyphenyl)-N-propyl-2-(4-(trifluoromethyl)phenyl)oxazole-4-carboxamide] | 75 | 80 |
| – | – | CCNC(=O)c1nc(-c2ccc(C(F)(F)F)cc2)oc1-c1cccc(O)c1 [Compound 318, N-Ethyl-5-(3-hydroxyphenyl)-2-(4-(trifluoromethyl)phenyl)oxazole-4-carboxamide] | 70 | 79 |
| 3 | 11 | O=C(c1nc(-c2ccc(C(F)(F)F)cc2)oc1-c1ccccc1[N+](=O)[O-])N1CCC(c2ccccc2)CC1 [Compound 145, (5-(2-Nitrophenyl)-2-(4-(trifluoromethyl)phenyl)oxazol-4-yl)(4-phenylpiperidin-1-yl)methanone] | – | – |
| 20 | 19 | O=C(NCCc1ccc(F)cc1)c1nc(-c2ccc(C(F)(F)F)cc2)oc1-c1ccccc1[N+](=O)[O-] [Compound 149, N-(4-Fluorophenethyl)-5-(2-nitrophenyl)-2-(4-(trifluoromethyl)phenyl)oxazole-4-carboxamide] | – | – |
| -22 | -28 | CN1CCN(CCNC(=O)c2nc(-c3ccc(F)cc3)oc2-c2ccccc2[N+](=O)[O-])CC1 [Compound 227, 2-(4-Fluorophenyl)-N-(2-(4-methylpiperazin-1-yl)ethyl)-5-(2-nitrophenyl)oxazole-4-carboxamide] | – | – |
| 14 | 33 | CN1CCN(CCNC(=O)c2nc(-c3ccc(N(C)C)cc3)oc2-c2ccccc2)CC1 [Compound 262, 2-(4-(Dimethylamino)phenyl)-N-(2-(4-methylpiperazin-1-yl)ethyl)-5-phenyloxazole-4-carboxamide] | – | – |
| 12 | 22 | CCOC(=O)c1nc(-c2cc(F)cc(F)c2)oc1-c1ccccc1 [Compound 73, Ethyl 2-(3,5-difluorophenyl)-5-phenyloxazole-4-carboxylate] | – | – |
| -31 | -18 | CN1CCN(C(=O)c2nc(-c3ccc(C(F)(F)F)cc3)oc2-c2ccccc2[N+](=O)[O-])CC1 [Compound 155, (4-Methylpiperazin-1-yl)(5-(2-nitrophenyl)-2-(4-(trifluoromethyl)phenyl)oxazol-4-yl)methanone] | – | – |
| 31 | 38 | CN1CCN(CCNC(=O)c2nc(-c3cccc(Cl)c3)oc2-c2ccccc2)CC1 [Compound 241, 2-(3-Chlorophenyl)-N-(2-(4-methylpiperazin-1-yl)ethyl)-5-phenyloxazole-4-carboxamide] | – | – |
| 5 | 0 | CN1CCN(CCNC(=O)c2nc(-c3cccc(OC(F)(F)F)c3)oc2-c2ccccc2)CC1 [Compound 200, N-(2-(4-Methylpiperazin-1-yl)ethyl)-5-phenyl-2-(3-(trifluoromethoxy)phenyl)oxazole-4-carboxamide] | – | – |
| -33 | -16 | O=C(c1nc(-c2ccc(C(F)(F)F)cc2)oc1-c1ccccc1[N+](=O)[O-])N1CCN(CCN2CCCCC2)CC1 [Compound 151, (5-(2-Nitrophenyl)-2-(4-(trifluoromethyl)phenyl)oxazol-4-yl)(4-(2-(piperidin-1-yl)ethyl)piperazin-1-yl)methanone] | – | – |
| 28 | 19 | CN1CCN(CCNC(=O)c2nc(-c3ccc(C#N)cc3)oc2-c2ccccc2[N+](=O)[O-])CC1 [Compound 252, 2-(4-Cyanophenyl)-N-(2-(4-methylpiperazin-1-yl)ethyl)-5-(2-nitrophenyl)oxazole-4-carboxamide] | – | – |
| 59 | 109 | CCOC(=O)c1nc(-c2ccc(-c3ccccc3)cc2)oc1-c1ccccc1 [Compound 81, Ethyl 2-([1,1′-biphenyl]-4-yl)-5-phenyloxazole-4-carboxylate] | – | – |
| 11 | 60 | CN(C)CCNC(=O)c1nc(-c2ccc(-c3ccccc3)cc2)oc1-c1ccccc1 [Compound 253, 2-([1,1′-Biphenyl]-4-yl)-N-(2-(dimethylamino)ethyl)-5-phenyloxazole-4-carboxamide] | – | – |
